In ChEMBL document CHEMBL6071156 (Eur J Med Chem, 2024):
pEC50, pIC50: −log10 of the molar value. The source made the active and inactive calls. The rule behind the calls is not given here.

What was measured:
Chikungunya virus [1] = experiment: Antiviral activity against CHIKV S27 in green monkey Vero 76 cells assessed as reduction in virus-induced cytopathic effect; type: functional, organism-based; settings: S27, Vero 76
[2] = Cytotoxicity against green monkey Vero 76 cells assessed as reduction in cell viability; type: toxicity, cell-based; settings: chlorocebus sabaeus
[3] = C0 in C57BL/6 mouse plasma at 2.5 mg/kg, iv measured upto 24 hrs post dosing by LC-MS/MS; type: ADME, organism-based; settings: in vivo
[4] = Half life in C57BL/6 mouse plasma at 10 mg/kg, po measured […] post dosing by LC-MS/MS; type: ADME, organism-based; settings: in vivo
[5] = Cmax in C57BL/6 mouse plasma at 10 mg/kg, po measured upto 24 hrs post dosing by LC-MS/MS; type: ADME, organism-based; settings: in vivo
[6] = Toxicity in Sham-infected C57BL/6 mouse model assessed as footpad swelling at 300 mg/kg/day, ip measured after 6 days post infection (reference value: -4.6+/-5.5); type: organism-based; settings: in vivo, 144 h, time 6 day
Chikungunya virus [7] = experiment: Antiviral activity against CHIKV infected in C57BL/6 mouse assessed as mouse survival at 300 mg/kg/day, ip measured after 6 days post infection; type: functional, organism-based; settings: time 6.0 day
Chikungunya virus [8] = experiment: Antiviral activity against CHIKV infected in C57BL/6 mouse assessed as mouse survival at 100 mg/kg/day, ip measured after 6 days post infection; type: functional, organism-based; settings: time 6.0 day
Chikungunya virus [9] = experiment: Antiviral activity against CHIKV infected in C57BL/6 mouse assessed as footpad swelling at 300 mg/kg/day, ip measured after 6 days post infection (Rvb =40.9+/-12.4); type: functional; settings: time 6 day
Chikungunya virus [10] = experiment: Antiviral activity against CHIKV infected in C57BL/6 mouse assessed as virus titers at 300 mg/kg/day, ip measured after 6 days post infection (reference value: 5.3+/0.3); type: functional; settings: time 6 day
Chikungunya virus [11] = experiment: Antiviral activity against CHIKV infected in C57BL/6 mouse assessed as virus titers at 100 mg/kg/day, ip measured after 6 days post infection (reference value: 5.3+/0.3); type: functional; settings: time 6 day
[12] = Toxicity in C57BL/6 mouse model assessed as effect on AST level at 300 mg/kg/day, ip measured after 6 days post infection (reference value: 64 to 100); type: organism-based; settings: in vivo, 144 h, time 6 day
[13] = Toxicity in C57BL/6 mouse model assessed as effect on BUN level at 300 mg/kg/day, ip measured after 6 days post infection (reference value: 20 to 30); type: organism-based; settings: in vivo, 144 h, time 6 day
[14] = Toxicity in C57BL/6 mouse model assessed as effect on CREAT level at 300 mg/kg/day, ip measured after 6 days post infection (reference value: 0.39 to 0.43); type: organism-based; settings: in vivo, 144 h, time 6 day
[15] = Toxicity in C57BL/6 mouse model assessed as effect on TBILI level at 300 mg/kg/day, ip measured after 6 days post infection (reference value: 0.30 to 0.43); type: organism-based; settings: in vivo, 144 h, time 6 day
[16] = biological target: Polyprotein P1234 (Chikungunya virus (strain S27-African prototype) (CHIKV)) (UniProt Q8JUX6); settings: dose 0.27-600 µM
[17] = Metabolic stability in human liver microsomes assessed as intrinsic clearance by HPLC-MS/MS analysis; type: ADME, Microsome
[18] = Metabolic stability in CD-1 mouse liver microsomes assessed as half life by HPLC-MS/MS analysis; type: ADME, Microsome
[19] = Metabolic stability in human liver S9 fraction assessed as intrinsic clearance by HPLC-MS/MS analysis; type: ADME, subcellular
Cytochrome P450 2B6 = biological target: T1, Cytochrome P450 2B6 (Homo sapiens, UniProt P20813); experiment: Inhibition of CYP2B6 (unknown origin); type: ADME
T1 sequence (P20813 whole entry): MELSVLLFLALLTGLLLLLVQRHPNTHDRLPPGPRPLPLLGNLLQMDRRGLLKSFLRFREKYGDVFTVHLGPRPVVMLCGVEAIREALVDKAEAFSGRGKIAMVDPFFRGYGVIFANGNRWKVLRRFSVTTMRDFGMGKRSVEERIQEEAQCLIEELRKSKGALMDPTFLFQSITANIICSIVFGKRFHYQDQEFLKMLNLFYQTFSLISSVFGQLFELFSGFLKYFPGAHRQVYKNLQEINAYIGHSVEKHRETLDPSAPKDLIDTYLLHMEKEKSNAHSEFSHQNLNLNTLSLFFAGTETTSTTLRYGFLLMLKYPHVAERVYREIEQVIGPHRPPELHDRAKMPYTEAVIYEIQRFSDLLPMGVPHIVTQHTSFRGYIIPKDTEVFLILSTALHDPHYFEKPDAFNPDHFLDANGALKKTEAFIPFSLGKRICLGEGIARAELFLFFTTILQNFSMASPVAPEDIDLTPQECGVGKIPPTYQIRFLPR

Cytochrome P450 2C19 = Cytochrome P450 2C19 (Homo sapiens, UniProt P33261); experiment: Inhibition of CYP2C19 (unknown origin); type: ADME
Cytochrome P450 2D6 = Cytochrome P450 2D6 (Homo sapiens, UniProt P10635); experiment: Inhibition of CYP2D6 (unknown origin); type: ADME
[20] = biological target: T2, Potassium voltage-gated channel subfamily KQT member 1 (Homo sapiens, UniProt P51787); experiment: Antagonist activity at recombinant hKCNQ1/hmink expressed in CHO-K1 cells by Electrophysiology; type: toxicity, cell-based
T2 sequence (P51787 whole entry): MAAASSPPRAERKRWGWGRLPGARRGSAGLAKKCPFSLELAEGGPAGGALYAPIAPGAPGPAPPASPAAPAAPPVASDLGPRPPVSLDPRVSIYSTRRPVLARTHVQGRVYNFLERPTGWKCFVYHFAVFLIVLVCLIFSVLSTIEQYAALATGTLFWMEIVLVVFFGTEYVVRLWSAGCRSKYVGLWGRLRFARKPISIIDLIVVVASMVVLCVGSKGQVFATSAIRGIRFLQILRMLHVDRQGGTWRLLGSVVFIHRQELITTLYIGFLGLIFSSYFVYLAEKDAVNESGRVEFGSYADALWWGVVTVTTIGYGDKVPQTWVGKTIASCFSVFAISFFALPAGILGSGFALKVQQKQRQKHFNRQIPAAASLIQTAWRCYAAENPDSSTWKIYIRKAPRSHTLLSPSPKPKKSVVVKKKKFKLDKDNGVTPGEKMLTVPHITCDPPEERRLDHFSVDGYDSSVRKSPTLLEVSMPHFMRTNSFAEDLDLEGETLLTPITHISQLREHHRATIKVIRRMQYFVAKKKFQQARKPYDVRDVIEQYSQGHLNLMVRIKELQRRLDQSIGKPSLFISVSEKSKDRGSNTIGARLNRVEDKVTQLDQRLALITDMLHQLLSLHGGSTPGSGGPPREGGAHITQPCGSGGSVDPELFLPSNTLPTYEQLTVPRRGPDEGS

Kir2.1 = experiment: Antagonist activity at hKir2.1 expressed in HEK293 cells by Electrophysiology; type: toxicity, cell-based; settings: human, HEK293 cells expressing hKir2.1
[21] = biological target: Voltage-gated inwardly rectifying potassium channel KCNH2 (Homo sapiens, UniProt Q12809); experiment: Antagonist activity at recombinant hERG expressed in CHO-K1 cells by Electrophysiology; type: toxicity, cell-based
Cav1.2 = experiment: Antagonist activity at hCav1.2 expressed in HEK293 cells by Electrophysiology; type: toxicity, cell-based; settings: human, HEK293 cells expressing hCav1.2

Sequence of Polyprotein P1234 (Chikungunya virus (strain S27-African prototype) (CHIKV)) (Q8JUX6 whole entry): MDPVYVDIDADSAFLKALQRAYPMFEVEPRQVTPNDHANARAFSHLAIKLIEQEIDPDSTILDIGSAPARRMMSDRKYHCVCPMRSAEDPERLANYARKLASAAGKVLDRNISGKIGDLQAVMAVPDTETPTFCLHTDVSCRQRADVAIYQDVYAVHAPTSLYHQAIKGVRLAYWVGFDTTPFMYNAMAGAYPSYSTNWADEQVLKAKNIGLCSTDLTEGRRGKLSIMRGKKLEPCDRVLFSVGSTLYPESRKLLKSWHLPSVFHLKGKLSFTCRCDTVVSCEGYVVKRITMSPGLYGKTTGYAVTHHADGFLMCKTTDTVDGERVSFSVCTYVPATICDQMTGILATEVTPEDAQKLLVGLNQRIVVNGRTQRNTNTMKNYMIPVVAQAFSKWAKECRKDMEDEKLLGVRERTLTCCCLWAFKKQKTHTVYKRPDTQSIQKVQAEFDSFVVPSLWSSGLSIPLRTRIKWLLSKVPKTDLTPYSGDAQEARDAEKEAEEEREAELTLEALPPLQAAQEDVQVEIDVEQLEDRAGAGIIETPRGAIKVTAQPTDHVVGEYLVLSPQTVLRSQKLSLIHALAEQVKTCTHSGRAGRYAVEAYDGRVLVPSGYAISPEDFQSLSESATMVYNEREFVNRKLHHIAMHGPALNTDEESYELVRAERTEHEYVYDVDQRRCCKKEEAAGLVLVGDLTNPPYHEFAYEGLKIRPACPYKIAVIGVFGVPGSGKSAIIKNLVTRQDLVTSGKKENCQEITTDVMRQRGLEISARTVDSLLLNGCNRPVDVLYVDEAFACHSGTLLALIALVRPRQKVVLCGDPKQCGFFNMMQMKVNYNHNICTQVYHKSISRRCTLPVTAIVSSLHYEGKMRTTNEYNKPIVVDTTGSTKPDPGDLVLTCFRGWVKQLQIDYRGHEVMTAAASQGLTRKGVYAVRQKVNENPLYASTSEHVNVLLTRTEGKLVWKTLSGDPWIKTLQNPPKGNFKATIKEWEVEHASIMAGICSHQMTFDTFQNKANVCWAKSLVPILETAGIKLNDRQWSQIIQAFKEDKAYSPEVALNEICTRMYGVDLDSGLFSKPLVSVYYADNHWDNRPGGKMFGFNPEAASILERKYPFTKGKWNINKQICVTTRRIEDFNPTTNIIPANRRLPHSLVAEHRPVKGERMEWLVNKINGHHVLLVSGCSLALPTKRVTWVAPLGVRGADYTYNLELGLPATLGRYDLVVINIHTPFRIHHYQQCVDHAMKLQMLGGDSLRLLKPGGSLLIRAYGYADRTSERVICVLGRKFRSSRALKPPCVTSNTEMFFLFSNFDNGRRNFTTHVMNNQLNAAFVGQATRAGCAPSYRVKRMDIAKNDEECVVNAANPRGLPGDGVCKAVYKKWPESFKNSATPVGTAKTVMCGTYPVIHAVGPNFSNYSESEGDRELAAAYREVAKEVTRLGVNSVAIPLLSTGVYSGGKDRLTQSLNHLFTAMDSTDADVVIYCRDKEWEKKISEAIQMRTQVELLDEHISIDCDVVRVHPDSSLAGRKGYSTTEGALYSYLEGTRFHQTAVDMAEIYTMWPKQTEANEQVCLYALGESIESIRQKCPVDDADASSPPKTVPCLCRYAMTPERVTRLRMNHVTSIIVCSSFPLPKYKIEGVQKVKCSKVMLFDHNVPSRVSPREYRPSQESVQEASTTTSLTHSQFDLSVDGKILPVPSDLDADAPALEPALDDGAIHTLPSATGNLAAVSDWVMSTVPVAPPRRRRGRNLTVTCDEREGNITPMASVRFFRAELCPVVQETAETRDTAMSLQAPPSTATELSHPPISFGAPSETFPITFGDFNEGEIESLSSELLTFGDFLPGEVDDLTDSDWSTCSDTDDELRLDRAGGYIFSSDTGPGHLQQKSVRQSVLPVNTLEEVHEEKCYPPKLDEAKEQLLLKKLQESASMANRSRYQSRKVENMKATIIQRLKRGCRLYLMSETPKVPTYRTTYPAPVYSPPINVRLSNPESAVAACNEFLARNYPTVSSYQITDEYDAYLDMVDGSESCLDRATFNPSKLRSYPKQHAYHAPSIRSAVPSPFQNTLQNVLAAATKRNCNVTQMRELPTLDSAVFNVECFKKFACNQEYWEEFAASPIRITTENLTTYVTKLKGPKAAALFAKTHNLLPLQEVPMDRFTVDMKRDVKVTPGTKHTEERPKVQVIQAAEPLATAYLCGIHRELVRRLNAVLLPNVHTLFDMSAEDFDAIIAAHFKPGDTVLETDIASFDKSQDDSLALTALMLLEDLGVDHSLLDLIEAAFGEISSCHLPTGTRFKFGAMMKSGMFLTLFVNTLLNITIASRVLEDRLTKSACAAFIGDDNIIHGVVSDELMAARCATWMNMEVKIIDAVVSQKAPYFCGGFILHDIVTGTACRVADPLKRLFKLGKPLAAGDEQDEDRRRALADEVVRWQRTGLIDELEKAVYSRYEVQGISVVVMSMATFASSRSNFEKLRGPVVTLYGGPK
Sequence of Cytochrome P450 2C19 (P33261 whole entry): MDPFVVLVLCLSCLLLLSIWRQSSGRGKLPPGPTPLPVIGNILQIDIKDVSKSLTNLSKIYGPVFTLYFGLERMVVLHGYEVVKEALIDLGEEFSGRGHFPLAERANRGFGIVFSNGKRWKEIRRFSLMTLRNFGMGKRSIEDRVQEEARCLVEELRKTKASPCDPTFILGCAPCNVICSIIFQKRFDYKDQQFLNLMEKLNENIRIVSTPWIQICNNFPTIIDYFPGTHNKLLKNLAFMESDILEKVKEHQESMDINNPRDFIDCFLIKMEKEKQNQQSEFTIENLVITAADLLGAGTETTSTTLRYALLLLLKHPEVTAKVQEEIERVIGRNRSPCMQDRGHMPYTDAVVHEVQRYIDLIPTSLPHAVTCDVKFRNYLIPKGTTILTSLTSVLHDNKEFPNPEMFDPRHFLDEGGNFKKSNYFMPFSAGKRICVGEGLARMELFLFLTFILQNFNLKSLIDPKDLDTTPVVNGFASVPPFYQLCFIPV
Sequence of Cytochrome P450 2D6 (P10635 whole entry): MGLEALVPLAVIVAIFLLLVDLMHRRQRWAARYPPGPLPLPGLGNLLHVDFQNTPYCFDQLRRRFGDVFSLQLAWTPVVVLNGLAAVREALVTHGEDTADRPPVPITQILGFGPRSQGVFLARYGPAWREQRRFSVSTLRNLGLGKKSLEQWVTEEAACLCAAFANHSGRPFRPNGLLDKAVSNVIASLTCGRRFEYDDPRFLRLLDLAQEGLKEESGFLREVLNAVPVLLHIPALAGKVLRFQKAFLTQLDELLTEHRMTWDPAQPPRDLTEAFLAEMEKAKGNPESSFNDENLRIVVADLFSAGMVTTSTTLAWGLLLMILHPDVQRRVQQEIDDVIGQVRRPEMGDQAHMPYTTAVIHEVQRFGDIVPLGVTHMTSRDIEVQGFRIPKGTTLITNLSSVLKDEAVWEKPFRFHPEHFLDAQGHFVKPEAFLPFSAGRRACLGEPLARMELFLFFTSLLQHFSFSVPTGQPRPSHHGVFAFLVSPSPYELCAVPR
Sequence of Voltage-gated inwardly rectifying potassium channel KCNH2 (Q12809 whole entry): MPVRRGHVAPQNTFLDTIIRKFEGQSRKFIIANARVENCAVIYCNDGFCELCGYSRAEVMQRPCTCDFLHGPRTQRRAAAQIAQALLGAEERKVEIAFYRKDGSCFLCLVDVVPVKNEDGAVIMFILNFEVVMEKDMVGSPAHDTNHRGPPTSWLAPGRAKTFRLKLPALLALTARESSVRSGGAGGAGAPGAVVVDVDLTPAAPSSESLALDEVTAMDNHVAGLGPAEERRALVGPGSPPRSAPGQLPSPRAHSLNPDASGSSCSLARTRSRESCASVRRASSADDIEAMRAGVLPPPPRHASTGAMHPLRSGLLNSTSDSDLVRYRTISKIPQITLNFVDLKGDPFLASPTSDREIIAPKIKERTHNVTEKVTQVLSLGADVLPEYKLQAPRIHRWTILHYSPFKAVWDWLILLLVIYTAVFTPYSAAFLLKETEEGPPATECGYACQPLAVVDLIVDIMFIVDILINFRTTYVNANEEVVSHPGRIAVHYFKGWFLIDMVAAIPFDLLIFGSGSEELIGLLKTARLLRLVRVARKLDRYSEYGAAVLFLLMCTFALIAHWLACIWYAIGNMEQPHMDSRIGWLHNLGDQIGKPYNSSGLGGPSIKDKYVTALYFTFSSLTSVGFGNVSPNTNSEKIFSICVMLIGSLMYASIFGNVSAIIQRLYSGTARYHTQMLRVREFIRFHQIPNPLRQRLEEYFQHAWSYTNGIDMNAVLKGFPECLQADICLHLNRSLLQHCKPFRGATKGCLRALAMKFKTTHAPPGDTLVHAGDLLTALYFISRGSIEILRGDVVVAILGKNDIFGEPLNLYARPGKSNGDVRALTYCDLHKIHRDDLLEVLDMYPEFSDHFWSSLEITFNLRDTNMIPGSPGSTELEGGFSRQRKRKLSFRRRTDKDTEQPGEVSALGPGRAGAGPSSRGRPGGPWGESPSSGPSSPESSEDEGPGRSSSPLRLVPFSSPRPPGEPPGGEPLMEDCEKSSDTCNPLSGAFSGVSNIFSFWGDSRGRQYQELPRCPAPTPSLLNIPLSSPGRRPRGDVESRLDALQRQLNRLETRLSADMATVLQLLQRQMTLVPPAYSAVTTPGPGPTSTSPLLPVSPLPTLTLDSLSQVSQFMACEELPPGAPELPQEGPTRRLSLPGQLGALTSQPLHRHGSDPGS

## CC1CCNc2c(C(=O)NC/C=C/S(C)(=O)=O)cccc21 (stereo unspecified)
Chikungunya virus [1]
  pEC50: 6.41
[2]
  CC50: > 50 µM
[3]
  C0: 966.5 ng/mL
[4]
  t1/2: 0.83 h
[5]
  Cmax: 125 ng/mL
[6]
  Activity: -1%
Chikungunya virus [7]
  Survival: Active
Chikungunya virus [8]
  Survival: Active
Chikungunya virus [9]
  Activity: 14.1%
Chikungunya virus [10]
  Activity: 5.3
Chikungunya virus [11]
  Activity: 5.8
[12]
  Activity: 64 U/L
[13]
  Activity: 18 mg/dL
[14]
  Activity: 0.35 mg/dL
[15]
  Activity: 0.34 mg/dL
[16]
  inhibition: Dose-Dependent Effect
[17]
  CLH: < 57.8 µL/min/mg
[18]
  t1/2: > 2 h
[19]
  CLH: 22.7 µL/min/mg
Cytochrome P450 2B6
  pIC50: < 4.00
Cytochrome P450 2C19
  pIC50: < 4.00
Cytochrome P450 2D6
  pIC50: < 4.00
[20]
  pIC50: < 4.00
Kir2.1
  pIC50: < 4.00
[21]
  pIC50: < 4.00
Cav1.2
  pIC50: < 4.00
